# Test results taken from article PMC10290391, “Targeted degradation of ⍺-synuclein aggregates in Parkinson’s disease using the AUTOTAC technology” (Molecular Neurodegeneration, 2023).
# Tests used:
# [1] = test system: HEK293A cells transduced with h-α-syn PFFs; assay: Immunocytochemistry in HEK293A cells transduced with h-α-syn PFFs; type: cell-based, human
# Procedure: Recombinant human α-syn (1–140) were obtained from NKMAX (SNA2001L). In vitro fibrillization was performed by diluting recombinant α-syn monomers to 1 mg/mL in sterile PBS, then incubating at 37 °C with constant agitation at 1,000 rpm for seven days. The fibrillization was verified by thioflavin T and sedimentation assays. The ability to form phospho-α-syn (S129) was also assessed by immunocytochemistry. In addition, to determine whether the generated PFFs act as seeds to accumulate endogenous α-syn, an adenovirus that expresses c-Myc-His-tagged human α-syn (gifted from lab of S.J.L) was used to infect cultured cells at an MOI of 10, followed by a fractionation assay. The administration of PFFs into 293A cells was done with protein delivery reagent (BioPORTER QuikEase Protein Delivery Kit, Sigma) following the provider’s instruction. The mouse α-syn PFFs were obtained from StressMarq (SPR-324). Prior to treatment, PFFs were sonicated at 20% amplitude, 1 s pulse on and off for 30 s (SONICS Vibra Cell sonicator, Merck Z412619). For cells, α-syn monomers and PFFs were transduced at 1 µg/mL.
# Cells were fixed with 4% paraformaldehyde (PFA) for 20 min at room temperature, followed by permeabilization with 0.1% Triton X-100 buffer for 15 min. The cells were blocked with 2% bovine serum albumin (BSA) in PBS for 1 h at room temperature. Then, the cells were incubated with primary antibodies diluted in the blocking buffer overnight at 4 °C. After washing with PBS, the slides were incubated with AlexaFluor-conjugated secondary antibodies for 1 h at room temperature. After mounting the slides with mounting solution containing DAPI, the images were captured on an LSM700 confocal microscopy (Carl Zeiss).
# [2] = test system: high molecular weight α-syn aggregates; assay: Dot blot / filter trap assay for α-syn aggregates in differentiated SH-SY5Y α-syn A53T cells; type: cell-based, human; settings: 100 nM, 24 h; 450 nm filter
# Procedure: Differentiated SH-SY5Y α-syn A53T cells were treated with 2 μg/ml of a-syn PFFs, and after 24 h cells were treated with 100 nM of ATC161 for 24 h. The cells were lysed in RIPA buffer for 30 min on ice and then centrifuged at 13,000 rpm for 20 min at 4 ℃. The supernatants were aspirated and transferred into a new tube kept on ice. Protein concentration was determined by a BCA assay. The filter trap assay was performed with 5 μg of total protein diluted in 100 μL of lysate. A nitrocellulose membrane (pore size: 0.45 μm) was placed on the filter trap apparatus (96-well Bio-Dot®). Lysates were loaded and allowed to pass through the membrane under vacuum. Aggregated α-syn levels were determined by immunoblotting using an anti-α-syn aggregate antibody [MJFF-14–6-4–2] (1:2000; Abcam, ab209538).
# [3] = Pharmacokinetic study of ATC161 in male ICR mice; type: in vivo
# Procedure: (§1) Supplementary file 13024_2023_630_MOESM1_ESM.eps: Additional file 1: Supplementary figure 1. Drug profiles of ATL and Autotac compounds. A, drug profiles of ATL compounds. Tissue concentrations and oral bioavailability were measured in ICR male mice upon 5 mg/kg oral administration of each ATL compound. B, structures of ATC161~164. C, Pharmacokinetic study of ATC161 conducted in male ICR mice otherwise indicated. M.W. represents molecular weight. The plasma exposure and the half-life were determined upon either POor IPATC161 administration. The drug tissue exposure was determined in Tau301L BiFC mice. IV refers to intravenous injection.
# [4] = Brain penetration of ATC161 in TauP301L-BiFC AD mouse model; type: in vivo, mice; settings: after 4 h of oral administration
# Procedure: as §1
# [5] = molecular target: T1, p62 (Mus musculus, UniProt Q64337); assay: Western blot in wild-type and p62-/- MEFs transduced with α-syn PFFs; type: cell-based; settings: 1 μM, 12 h
# T1 construct: endogenous in cells; host or cells: wild-type and p62-/- MEFs (Keiji Tanaka's laboratory)
# T1 sequence (Q64337 whole entry): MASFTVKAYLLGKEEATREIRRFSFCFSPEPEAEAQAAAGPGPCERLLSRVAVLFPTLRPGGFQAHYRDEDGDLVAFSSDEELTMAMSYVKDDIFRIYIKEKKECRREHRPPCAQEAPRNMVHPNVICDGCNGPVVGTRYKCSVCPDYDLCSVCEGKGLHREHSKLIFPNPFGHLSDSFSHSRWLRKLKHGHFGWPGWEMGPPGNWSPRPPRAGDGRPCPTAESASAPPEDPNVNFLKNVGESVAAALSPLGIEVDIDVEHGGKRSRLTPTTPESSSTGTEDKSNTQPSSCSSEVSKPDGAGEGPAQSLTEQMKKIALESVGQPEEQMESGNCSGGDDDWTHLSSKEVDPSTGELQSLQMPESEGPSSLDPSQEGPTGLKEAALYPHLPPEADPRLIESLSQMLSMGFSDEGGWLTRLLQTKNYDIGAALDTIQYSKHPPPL
# Description: Wild type human neuroblastoma cells (SH-SY5Y) and Hela were obtained from Korean Cell Line Bank. SH-SY5Y α-syn A53T cells, COS7 cells and 293A cell line were kindly gifted from S.J.L. lab. COS7 cells, 293A cells, wild-type and p62^−/− MEF cells, and wild type or A53T mutant α-syn SH-SY5Y cells were maintained in Dulbecco’s Modified Eagle’s Medium (DMEM) containing 10% fetal bovine serum (FBS). Wild-type and p62^−/− MEFs were obtained from Keiji Tanaka’s laboratory (Tokyo Metropolitan Research Institute, Japan). Cells were incubated at 37 °C in a 5% CO2 humidified chamber. The differentiation of SH-SY5Y α-syn A53T cells was done by 10 µM retinoic acid for 7 days prior to subsequent experiments.
# For the separation of Triton X-100 soluble and insoluble fractions for monitoring α-syn, cells were washed with PBS and lysed in Triton X-100 buffer (50 mM Tris / 150 mM NaCl / 100 mM EDTA / 1% Triton X-100, pH 7.6) containing protease and phosphatase inhibitors for 30 min on ice. The lysates were centrifuged at 12,000 rpm for 30 min, and the soluble supernatant was taken. The remaining pellets were washed with Triton X-100 buffer, followed by centrifugation at 12,000 rpm for 20 min. […] Immunoreactive bands were detected using ECL reagents (Thermo Fisher Scientific, 32,106). […] Densitometry of developed bands was analyzed with ImageJ (NIH, Bethesda).
# [6] = test system: SH-SY5Y α-syn A53T cells; assay: MitoTracker Red analysis in SH-SY5Y α-syn A53T cells treated with rotenone; type: cell-based, human; settings: 0.1 μM, 24 h; vs vehicle-treated cells
# Procedure: Adenovirus overexpressing human wild-type SNCA was kindly gifted from the lab of S.J.L. COS7 cells were infected with the adenovirus overexpressing human α-syn at 0.8 × 10^8 pfu and incubated at 37 °C for 24 h. When the confluency reached 90%, the cells were split onto 6-well plates for further experiments. The α-syn aggregation was induced by the treatment of 100 nM rotenone (Sigma-Aldrich, R8875) for 56 h. For the MitoTracker analyses in SH-SY5Y α-syn A53T cells, rotenone was treated at 1 µM for 48 h with the co-treatment of 100 nM ATC161 for 24 h, then MitoTracker Red CMXRos (Invitrogen; M7512) was used to stain intact mitochondria following the manufacturer’s instruction.
smiles,measurement,setting,value
"Fc1ccc(COc2cccc(CNCCOCCOCCNc3cccc(-c4cc(-c5ccc6c(c5)OCO6)n[nH]4)c3)c2)cc1 [ATC161, 3-(3-(benzo[d][1,3]dioxol-5-yl)-1H-pyrazol-5-yl)-N-(2-(2-(2-((3-((4-fluorobenzyl)oxy)benzyl)amino)ethoxy)ethoxy)ethyl)aniline]",number of phospho-H2AX+ foci (DNA double strand breaks),"[1]; 0.1 μM, 48 h",robust efficacy to reduce the number of phospho-H2AX^+ foci
same,reduction in number of α-syn+ cytosolic puncta,"[1]; 1 μM, 24 h",55%
same,degradation of high molecular weight α-syn aggregates,[2],induced the degradation of high molecular weight α-syn aggregates
same,half-life,"[3]; male, ICR, oral, mouse plasma, read-out: terminal elimination half-life (T1/2) (converted)",3.7 h
same,systemic exposure,"[3]; oral administration, mice",3299.3 ng·h/mL
same,Kp at 4 h,[4],~0.1
same,lipidation of LC3 in the absence of p62,[5],failed to induce the lipidation of LC3 into LC3-II
same,MitoTracker fluorescence (mitochondrial integrity),[6],increased level of MitoTracker signals
